Here are results for 1 molecule from patent publication US20070191459A1, “Use of Benzo-Heteroaryl Sulfamide Derivatives for Lowering Lipids and Lowering Blood Glucose Levels” (priority 2006, published 2007).

In the test the test system is db/db mice. The experiment in a line: Diabetic db/db Mouse In Vivo Assay. The note with it: female db/db mice. The text has this: Db/db mice are known in the art to be susceptible to Type II diabetes (Sharma K, McCue P, Dunn S R. Am J Physiol Renal Physiol. 2003 June; 284(6):F1138-44). The Db/db mice are also known in the art to be a useful model for dylipidemia.
Female db/db mice (C57BL/6J-Lep^db/db, Jackson Laboratories, Bar Harbor, Me., USA) were received at 8 weeks of age and single-housed and fed with regular chow diet. Blood was collected by tail puncture and glucose was monitored with a glucometer (OneTouch Basic, Lifescan, Newtown, Pa.).
Mice at 10 weeks of age were randomized into treatment groups based on glucose values (first criterion, average of 250 mg/dl) and body weight (second criterion, average of 37 gram). The mice were orally gavaged once daily (0.2 ml at 1500-1700 hour) with vehicle control (0.5% methylcellulose, pH7.4) and vehicle containing test compound (300 mg/kg). On day 11, the mice were fasted for 4 hr during light cycle (food was removed 0600-1000 hour) and blood glucose levels were measured through tail puncture with a glucometer at 1000 hour. The mice were then anaesthetized with sodium pentobarbital (1 ml/kg, i.p, Sleepaway, Fort Dodge, Iowa) and blood was drawn via cardiac puncture and collected into heparinized tubes.
White adipose tissue (WAT) (retroperitoneal fat) and skeletal muscle (gastrocnemius and soleus muscle) were dissected and weighed. Plasma samples were obtained by centrifuge at 2,000 g for 15 minutes at 4° C. and subjected to measurement of insulin, HDL cholesterol and triglyceride.
Data shown below are expressed as the mean and standard error calculated using 9-10 mice per treatment group. The 2 tailed Student's t-Tests were used for statistic analysis. All animal studies complied with the guideline of the Institutional Animal Care and Use Committee.

[1] abbreviates: 300 mg/kg oral gavage once daily, day 11, plasma, mean ± standard error.
Where [2] appears, read: 300 mg/kg oral once daily, in words.

For the molecule `NS(=O)(=O)NCc1csc2ccccc12` [Compound #1, N-(benzo[b]thien-3-ylmethyl)-sulfamide], the “Blood Glucose” value (300 mg/kg oral gavage once daily, day 11, 4 hr fasted, mean ± standard error, 9-10 mice) stood at 350 ± 19 mg/dL. Also, under setting [1], the “HDL Cholesterol” value was 52.6 ± 1.8 mg/dL and the Triglycerides was 149.2 ± 15.8 mg/dL. This molecule also returned an Insulin levels (300 mg/kg oral gavage once daily, day 11, plasma, vehicle 11.9±2.2) of 14.6±3.0. Also, the “Skeletal Muscle Weight” value (300 mg/kg oral gavage once daily, day 11, gastrocnemius and soleus muscle, mean ± standard error) is listed as 0.155 ± 0.004 g. The “Retroperitoneal Fat Weight” value (300 mg/kg oral gavage once daily, day 11, mean ± standard error) was 1.29 ± 0.09 g. In addition, under setting [2], the “blood glucose levels as compared to vehicle treated mice” value is given as “significantly lower”, the “blood triglyceride levels as compared to vehicle treated mice” value is “decreased”, the “plasma HDL cholesterol levels as compared to vehicle treated mice” value was “significantly increased” and the “skeletal muscle mass versus vehicle” value is “increased skeletal muscle mass”. The “fat to lean mass ratio” value (300 mg/kg oral once daily, versus vehicle, in words) is listed as “significant decrease”.
